Reference: patent US7662778B2, “Histone deacetylase inhibitor and process for producing the same” (Riken, priority 2003, dated 2010)
Read-outs that look alike come from different tables or passages of the source. Where a SMILES comes first, the peptide text is derived from it. [ ]: non-standard residue; d: D form. Phe(4-NH2) = Nc1ccc(C[C@H](N)C(=O)O)cc1

Assays:
[1] = test system: human wild-type p21 promoter; experiment: p21 promoter-inducing activity (luciferase) in MFLL-9 cells; format: cell-based; conditions: Table 1; MFLL-9 cells, 18 hours; concentration corresponding to 50% of the maximum active value for TSA
Method: The HDAC inhibitory activity in vivo was measured using p21 promoter-inducing activity as an index, as shown below. The MFLL-9 cells employed for the experiments stably maintained fusion genes of human wild-type p21 promoter and luciferase (Dr. B. Vogelstaein). Using phenol red-free DMEM medium comprising 10% FBS, cultivation was carried out in a steam-saturated incubator at 37° C. with 5% carbon dioxide. The MFLL-9 cells were plated at a density of 85,000 cells/well on a 96-well microtiter plate, each in 99 μl of the above-mentioned medium. These were then cultivated for six hours. One μl of test compound solution was added to each well, which was then cultured for another 18 hours.
The intensity of luminescence caused by the product of the enzyme reaction for intracellular luciferase expression was measured using Luc Lite (Packard BioScience Company).
HDAC inhibitory activity in an in vivo system was measured using p21 promoter induction as index. The experimental method followed that of Example 11.

[2] = test system: human uterine cancer cells (HeLa); experiment: Cytotoxicity test (XTT), HeLa; format: cell-based; conditions: 48 hours
[3] = test system: normal human lung cells (TIG-3)
human HDAC1 = target: T1, human HDAC1 (Homo sapiens, UniProt Q13547); experiment: HDAC inhibitory activity in vitro (coumarin-labeled acetylated histone peptide), HDAC1; format: biochemical; conditions: Table 1; 37° C., 30 minutes; read-out: IC50 (μM) HDAC1
T1 construct: FLAG; made in house; host or cells: 293T cells, transient transfection; anti-FLAG immunoprecipitation and FLAG peptide elution
T1 sequence (Q13547 whole entry): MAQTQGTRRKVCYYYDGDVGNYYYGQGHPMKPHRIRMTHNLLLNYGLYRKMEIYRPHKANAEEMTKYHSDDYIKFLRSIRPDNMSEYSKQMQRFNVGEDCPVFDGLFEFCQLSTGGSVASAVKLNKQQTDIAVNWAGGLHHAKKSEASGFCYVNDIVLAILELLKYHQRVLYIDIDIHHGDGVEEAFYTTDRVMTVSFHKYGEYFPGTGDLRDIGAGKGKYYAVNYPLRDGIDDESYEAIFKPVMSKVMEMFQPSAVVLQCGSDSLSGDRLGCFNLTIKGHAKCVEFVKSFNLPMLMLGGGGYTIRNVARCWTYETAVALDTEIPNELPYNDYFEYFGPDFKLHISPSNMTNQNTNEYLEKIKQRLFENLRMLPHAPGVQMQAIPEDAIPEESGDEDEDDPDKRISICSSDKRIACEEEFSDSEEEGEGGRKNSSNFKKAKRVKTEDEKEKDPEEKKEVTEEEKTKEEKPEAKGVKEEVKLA

mouse HDAC6 = target: T2, mouse HDAC6 (Mus musculus, UniProt Q9Z2V5); experiment: HDAC inhibitory activity in vitro (coumarin-labeled acetylated histone peptide), HDAC6; format: biochemical
T2 construct: HA; made in house; host or cells: 293T cells, transient transfection; anti-HA immunoprecipitation and HA peptide elution
T2 sequence (Q9Z2V5 1-1149): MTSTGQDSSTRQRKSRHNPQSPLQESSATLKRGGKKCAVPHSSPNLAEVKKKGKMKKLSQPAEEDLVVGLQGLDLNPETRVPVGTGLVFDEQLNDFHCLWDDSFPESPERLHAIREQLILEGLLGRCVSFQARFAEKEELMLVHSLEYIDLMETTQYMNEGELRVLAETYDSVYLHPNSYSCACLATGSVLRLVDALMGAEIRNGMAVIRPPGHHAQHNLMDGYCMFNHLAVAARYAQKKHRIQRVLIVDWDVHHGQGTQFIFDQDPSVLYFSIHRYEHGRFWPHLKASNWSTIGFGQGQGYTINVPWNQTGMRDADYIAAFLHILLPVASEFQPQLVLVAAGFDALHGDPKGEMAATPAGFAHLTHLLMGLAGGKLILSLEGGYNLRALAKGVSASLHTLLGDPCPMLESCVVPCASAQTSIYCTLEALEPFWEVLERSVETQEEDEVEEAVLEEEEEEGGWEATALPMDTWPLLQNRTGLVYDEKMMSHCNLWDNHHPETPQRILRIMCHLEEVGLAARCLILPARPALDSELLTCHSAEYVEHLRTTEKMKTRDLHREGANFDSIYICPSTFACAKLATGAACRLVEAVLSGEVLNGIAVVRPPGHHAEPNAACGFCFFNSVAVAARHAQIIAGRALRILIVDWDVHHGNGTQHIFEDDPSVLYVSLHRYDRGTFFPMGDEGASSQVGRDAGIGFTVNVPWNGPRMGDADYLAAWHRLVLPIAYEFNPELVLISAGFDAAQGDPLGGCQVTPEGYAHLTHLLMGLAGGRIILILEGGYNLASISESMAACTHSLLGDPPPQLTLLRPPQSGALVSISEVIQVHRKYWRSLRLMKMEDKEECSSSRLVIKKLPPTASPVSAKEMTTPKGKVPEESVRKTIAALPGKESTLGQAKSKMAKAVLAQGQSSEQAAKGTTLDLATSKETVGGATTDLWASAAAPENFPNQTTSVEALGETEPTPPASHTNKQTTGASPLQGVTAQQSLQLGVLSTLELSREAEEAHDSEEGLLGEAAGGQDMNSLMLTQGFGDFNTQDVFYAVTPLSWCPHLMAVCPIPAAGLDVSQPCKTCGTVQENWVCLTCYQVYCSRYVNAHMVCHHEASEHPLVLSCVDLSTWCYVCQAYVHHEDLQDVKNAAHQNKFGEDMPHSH

human HDAC4 = target: T3, human HDAC4 (Homo sapiens, UniProt P56524); experiment: HDAC inhibitory activity in vitro (coumarin-labeled acetylated histone peptide), HDAC4; format: biochemical
T3 construct: FLAG; made in house; host or cells: 293T cells, transient transfection; anti-FLAG immunoprecipitation and FLAG peptide elution
T3 sequence (P56524 whole entry): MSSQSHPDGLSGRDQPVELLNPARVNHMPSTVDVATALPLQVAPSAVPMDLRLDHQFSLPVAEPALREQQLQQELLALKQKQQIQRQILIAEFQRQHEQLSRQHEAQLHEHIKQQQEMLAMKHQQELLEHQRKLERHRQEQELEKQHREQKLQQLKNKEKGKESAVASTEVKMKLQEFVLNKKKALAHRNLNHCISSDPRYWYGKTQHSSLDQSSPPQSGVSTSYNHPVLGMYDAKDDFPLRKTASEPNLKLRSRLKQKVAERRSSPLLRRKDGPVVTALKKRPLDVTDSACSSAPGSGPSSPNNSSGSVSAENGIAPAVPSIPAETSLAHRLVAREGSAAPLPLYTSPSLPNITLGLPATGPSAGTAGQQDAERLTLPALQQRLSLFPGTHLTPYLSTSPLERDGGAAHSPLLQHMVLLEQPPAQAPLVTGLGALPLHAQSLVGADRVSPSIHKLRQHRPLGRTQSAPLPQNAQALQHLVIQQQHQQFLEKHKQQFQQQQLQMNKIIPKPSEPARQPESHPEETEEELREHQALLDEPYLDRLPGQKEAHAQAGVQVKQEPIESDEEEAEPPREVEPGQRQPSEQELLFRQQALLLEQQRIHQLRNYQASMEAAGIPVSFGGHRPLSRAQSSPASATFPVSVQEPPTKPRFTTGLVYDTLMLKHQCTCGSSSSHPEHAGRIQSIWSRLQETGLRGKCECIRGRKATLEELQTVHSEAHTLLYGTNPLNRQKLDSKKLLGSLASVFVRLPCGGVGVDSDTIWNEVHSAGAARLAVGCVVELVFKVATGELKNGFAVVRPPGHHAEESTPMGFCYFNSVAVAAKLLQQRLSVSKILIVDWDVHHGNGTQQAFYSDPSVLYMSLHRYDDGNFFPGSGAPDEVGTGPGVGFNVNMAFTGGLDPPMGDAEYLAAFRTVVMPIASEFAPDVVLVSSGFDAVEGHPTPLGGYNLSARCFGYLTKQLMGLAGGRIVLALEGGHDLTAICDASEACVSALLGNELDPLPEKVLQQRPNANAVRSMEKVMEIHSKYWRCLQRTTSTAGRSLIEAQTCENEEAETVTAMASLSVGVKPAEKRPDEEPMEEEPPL

[4] = amide bond, 12-membered ring, DMF
tubulin deacetylase = experiment: Tubulin and histone acetylation level in HeLa cells by western blotting; format: cell-based, human; conditions: six hours, anti-acetylated lysine antibody, FIG. 4
Method: Tubulin and histone acetylation levels were measured by: (a) reacting a test compound with HeLa cells; and (b) confirming the tubulin and histone acetylation level by western blotting using anti-acetylated lysine antibodies. Specifically, human uterine cancer cells (HeLa) were cultured in a DMEM medium supplemented with 10% FBS at 37° C. in the presence of 5% carbon dioxide in a steam-saturated incubator. Two ml of the cells at a density of 15,000 cells/ml were plated onto a 6-well plate and cultured for 18 hours. Test compound solution was added to each culture and successively cultured for another six hours. The cells were washed with PBS, suspended in a lysis buffer (50 mM Tris-HCl (pH7.5), 120 mM NaCl, 5 mM EDTA, 0.5% Nonidet P-40), and then sonicated. The supernatant was collected by centrifugation, mixed with SDS bufer, and left at 100° C. for five minutes. The resulting sample was subjected to electroplioresis on a 15% SDS gel and transferred to a membrane film. This was treated with primary antibody “AKL5C1” (Japan Energy), and secondary antibody “anti-mouse” (LIFE SCIENCE), and then acetylation bands were detected by ECL (amersham pharmacia biotech) (FIG. 4).

[5] = read-out: IC50 (nM) TIG-3, 48 hours, XTT
[6] = Table 1, 37° C., 30 minutes, read-out: IC50 (μM) HDAC6

Structure (SMILES)	EC50 [1]	IC50 [2]	IC50 (mouse HDAC6; [6])	IC50 ([3]; 48 h)	also measured
CC(/C=C/C(=O)NO)=C\[C@@H](C)C(=O)c1ccc(N(C)C)cc1 [TSA, Trichostatin A, reference compound]	0.77 µM	12.3 nM			IC50 [3, 5]: 151 nM
CC[C@H](C)[C@@H]1NC(=O)[C@@H](Cc2ccc(OC)cc2)NC(=O)[C@H](Cc2ccc(N)cc2)NC(=O)[C@H]2CCCN2C1=O [Aph, cyclo(-L-Aph-D-Tyr(Me)-L-Ile-D-Pro-)] (cyclo(I[dP][Phe(4-NH2)][dY](Me)))	> 100 µM	> 50000 nM	> 500 µM	> 50000 nM	IC50 (human HDAC1): > 500 µM; IC50 (human HDAC4; Table 1, 37° C., 30 minutes, read-out: IC50 (μM) HDAC4): > 500 µM
CC[C@H](C)[C@@H]1NC(=O)[C@@H](Cc2ccc(OC)cc2)NC(=O)[C@H](CCCCSCC(=O)C(F)(F)F)NC(=O)[C@H]2CCCN2C1=O [Mtfk, cyclo(-L-Am6(Tfacet)-D-Tyr(Me)-L-Ile-D-Pro-)]	6.64 µM	52.5 nM	0.95 µM	468 nM	
CC[C@H](C)[C@@H]1NC(=O)[C@@H](Cc2ccc(OC)cc2)NC(=O)[C@H](CCCCN(C=O)OCc2ccccc2)NC(=O)[C@H]2CCCCN2C1=O [cyclo(-L-Lys(For, OBzl)-D-Tyr(Me)-L-Ile-D-Pip-)]					ring closure, isolated yield ([4]; from H-dTyr(Me)-Ile-dPip-Lys(For,OBzl)-OH?, HATU/DIEA, 0.4 mM, 25.0 °C): 25%
CC[C@H](C)[C@@H]1NC(=O)[C@@H](Cc2ccc(OC)cc2)NC(=O)[C@H](CCCCOn2nnc3cccnc32)NC(=O)[C@H]2CCCN2C1=O [cyclo(-L-Ab6-D-Tyr(Me)-L-Ile-D-Pro-)]					ring closure, isolated yield ([4]; from H-dTyr(Me)-Ile-dPro-Ab6-OH, HBTU/HOBt/DIEA, 5.4 mM, 2 steps): 32%
CC[C@H](C)[C@@H]1NC(=O)[C@@H](Cc2ccc(OC)cc2)NC(=O)[C@H](CCCCCC(=O)C(F)(F)F)NC(=O)[C@H]2CCCN2C1=O [Tfk, cyclo(-L-Tfm-D-Tyr(Me)-L-Ile-D-Pro-)]	3.09 µM	8.8 nM	1.44 µM	87.1 nM	tubulin acetylation (tubulin deacetylase inhibition in the cells) (tubulin deacetylase): induced high level of tubulin acetylation
CC[C@H](C)[C@@H]1NC(=O)[C@@H](Cc2ccc(OC)cc2)NC(=O)[C@H](CCCCCC(=O)C(F)(F)C(F)(F)F)NC(=O)[C@H]2CCCN2C1=O [Pfek, cyclo(-L-Pfe-D-Tyr(Me)-L-Ile-D-Pro-)]	> 100 µM	616 nM			IC50 (mouse HDAC6): 5.72 µM; IC50 [3, 5]: 13400 nM; IC50 (human HDAC4): 1.22 µM
CC[C@H](C)[C@@H]1NC(=O)[C@@H](Cc2ccc(OC)cc2)NC(=O)[C@H](CCCCCN(C=O)OCc2ccccc2)NC(=O)[C@H]2CCCN2C1=O [cyclo(-L-Hly(For, OBzl)-D-Tyr(Me)-L-Ile-D-Pro-)]					ring closure, isolated yield ([4]; from H-dTyr(Me)-Ile-dPro-Hly(For,OBzl)-OH, HATU/DIEA, 0.96 mM, 25.0 °C): 66%
